These compounds were tested against T1, human leukocyte elastase (Homo sapiens, UniProt P08246) (assay: Inhibition of human leukocyte elastase in vitro (Ki* = koff/kon)). Settings: Ki* = koff/kon (rate of reactivation of the enzyme divided by rate of inactivation); koff and kon measured, Ki* then calculated.
T1 sequence (P08246 30-267): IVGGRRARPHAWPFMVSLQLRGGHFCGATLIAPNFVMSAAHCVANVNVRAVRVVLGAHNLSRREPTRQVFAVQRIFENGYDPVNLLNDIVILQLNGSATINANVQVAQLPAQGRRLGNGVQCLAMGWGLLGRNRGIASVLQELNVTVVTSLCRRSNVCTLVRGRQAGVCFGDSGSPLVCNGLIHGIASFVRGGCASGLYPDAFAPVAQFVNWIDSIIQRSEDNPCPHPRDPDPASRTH
Assay type: biochemical
Protocol: Ki*, which is defined as the rate of reactivation of the enzyme divided by the rate of inactivation of the enzyme (koff/kon), was therefore determined instead. The values of koff and kon were measured and Ki* was then calculated.
The value of kon was determined by measuring the enzyme activity of an aliquot of the enzyme as a function of the time after addition of the test compound (inhibitor). […] The value of kon was then obtained by the equation kon = kobs /[I] [formula] wherein [I] is the concentration of the inhibitor. The value of koff was similarly determined, and Ki* was then obtained by the equation Ki * = koff /kon [formula] .

Structure (SMILES) | Ki [nM]
CC(C)c1cccc2c1C(=O)N(COC1=CC(=O)OC1)S2(=O)=O [Example 1A, 2-[(2,5-dihydro-5-oxo-3-furanyl)oxymethyl]-4-isopropylsaccharin] | 0.4
CC(C)c1cccc2c1C(=O)N(COc1cc(=O)oc3ccccc13)S2(=O)=O [Example 1B] | 0.22
CC(C)c1cccc2c1C(=O)N(COc1cc(=O)n(C)c3ccccc13)S2(=O)=O [Example 1C] | 0.7
Cc1cc(OCN2C(=O)c3c(C(C)C)cccc3S2(=O)=O)cc(=O)o1 [Example 1D] | 0.25
Cc1cc(OCN2C(=O)c3c(C(C)C)cccc3S2(=O)=O)c(C(=O)c2ccccc2)c(=O)o1 [Example 1E] | 0.035
CC(C)c1cccc2c1C(=O)N(COc1cc(-c3ccccc3)oc(=O)c1)S2(=O)=O [Example 1F] | 0.22
COc1cc(C(C)C)c2c(c1)S(=O)(=O)N(COC1=C(Cc3ccccc3)C(=O)OC1(C)C)C2=O [Example 1O] | 0.016
COc1cc(C(C)C)c2c(c1)S(=O)(=O)N(COC1=C(CN3CCOCC3)C(=O)OC1)C2=O [Example 1P] | 0.041
COc1cc(C(C)C)c2c(c1)S(=O)(=O)N(COc1nc3ccccn3c(=O)c1CN1CCOCC1)C2=O [Example 5, 2-[3-(4-morpholinylmethyl)-4-oxo-4H-pyrido[1,2-a]pyrimidin-2-yl]oxymethyl-4-isopropyl-6-methoxysaccharin] | 0.23
COc1cc(C(C)C)c2c(c1)S(=O)(=O)N(COC1=C(C)C(=O)C(C)=C(C)C1=O)C2=O [Example 6, 2-(3,5,6-trimethyl-1,4-dioxo-2,5-cyclohexadien-2-yl)oxymethyl-4-isopropyl-6-methoxysaccharin] | 0.92
COc1cc(C(C)C)c2c(c1)S(=O)(=O)N(COC1=C(C(C)=O)C(=O)c3ccoc3C1=O)C2=O [Example 7, 2-(5-acctyl-4,7-dihydro-4,7-dioxobenzofuran-6-yl)oxymethyl-4-isopropyl-6-methoxysaccharin] | 17

Second part, the compound after the results:

Ki [nM] | Structure (SMILES)
0.43 | COc1cc(C(C)C)c2c(c1)S(=O)(=O)N(COc1c(C(C)=O)c(=O)n(-c3ccccc3)c3ccccc13)C2=O [Example 3A, 2-(1-phenyl-3-acetylcarbostyryl-4-yl)oxymethyl-4-isopropyl-6-methoxysaccharin]
0.27 | COc1cc(C(C)C)c2c(c1)S(=O)(=O)N(COc1c(C(C)=O)c(=O)n(C)c3ccccc13)C2=O [Example 3B, 2-(1-methyl-3-acetylcarbostyryl-4-yl)oxymethyl-4-isopropyl-6-methoxysaccharin]
0.093 | COc1cc(C(C)C)c2c(c1)S(=O)(=O)N(COC1=CC(=O)OC1(C)C)C2=O [Example 4E]
0.06 | COc1cc(C(C)C)c2c(c1)S(=O)(=O)N(COC1=C(Oc3ccccc3)C(=O)N(c3ccccc3)C1)C2=O [Example 4F]
0.2 | COc1cc(C(C)C)c2c(c1)S(=O)(=O)N(COC1=C(N3CCCCC3)C(=O)N(c3ccccc3)C1)C2=O [Example 4G]
